In ChEMBL document CHEMBL3400071, “The CERT antagonist HPA-12: first practical synthesis and individual binding evaluation of the four stereoisomers” (Bioorg Med Chem, 2015):

Biological target: T1, Ceramide transfer protein (Homo sapiens, UniProt Q9Y5P4)
T1 sequence (Q9Y5P4 whole entry): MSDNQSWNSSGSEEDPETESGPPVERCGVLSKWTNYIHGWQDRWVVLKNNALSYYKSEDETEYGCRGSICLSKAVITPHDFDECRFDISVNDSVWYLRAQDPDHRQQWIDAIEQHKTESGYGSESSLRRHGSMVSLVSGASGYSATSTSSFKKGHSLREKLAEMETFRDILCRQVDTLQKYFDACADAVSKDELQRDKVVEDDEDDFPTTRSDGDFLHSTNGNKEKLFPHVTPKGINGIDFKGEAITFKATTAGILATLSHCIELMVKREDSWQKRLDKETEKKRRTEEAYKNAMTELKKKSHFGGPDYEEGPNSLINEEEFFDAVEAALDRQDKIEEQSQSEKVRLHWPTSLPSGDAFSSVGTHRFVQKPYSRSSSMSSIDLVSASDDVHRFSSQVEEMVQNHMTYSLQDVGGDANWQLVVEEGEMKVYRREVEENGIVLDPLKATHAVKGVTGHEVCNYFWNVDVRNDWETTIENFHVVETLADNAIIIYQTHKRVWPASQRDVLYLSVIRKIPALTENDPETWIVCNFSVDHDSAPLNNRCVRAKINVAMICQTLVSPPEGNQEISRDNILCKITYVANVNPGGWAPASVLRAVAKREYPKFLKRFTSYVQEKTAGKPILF
Assay: Binding affinity to histidine-tagged human recombinant […] containing CERT START domain pre-incubated for 30 mins before biotinylated ceramide probe addition and measured after 18 hrs post probe addition by TR-FRET binding assay

| SMILES | EC50 [µM] |
| --- | --- |
| CCCCCCCCCCCC(=O)N[C@@H](CO)C[C@@H](O)c1ccccc1 | 22 |
| CCCCCCCCCCCC(=O)N[C@H](CO)C[C@H](O)c1ccccc1 | 25 |
| CCCCCCCCCCCC(=O)N[C@H](CO)C[C@@H](O)c1ccccc1 | 159 |
| CCCCCCCCCCCC(=O)N[C@@H](CO)C[C@H](O)c1ccccc1 | 4 |
